In patent US20180110762A1, “Compositions Methods for Treating Chronic Kidney Disease” (Merck Sharp & Dohme Corp, priority 2015, published 2018):

Experiments:
[1] = ZSF1 rat 28-week in-feed study: body weight, food and water intake; format: in vivo; details: obese ZSF1 rats
Description: (§1) The effects of Compound A (“A”) on renal function, plasma triglycerides, plasma cholesterol, kidney collagen I, kidney collagen III, renal histology, glomerular filtration rate, fibrosis score, and mRNA gene expression (profibrotic genes and integrin β3) were evaluated in male obese ZSF1 rats (a hybrid F1 of Zucker diabetic fatty rat and spontaneously hypertensive heart failure rat; a diabetic nephropathy model) when administered as in-feed for 28 weeks. Sixty obese male ZSF1 rats were randomized to five groups: Obese control (n=12), Compound A 60 mpk (n=12), Compound A 200 mpk (n=12), Compound A 400 mpk (n=12), Enalapril 10 mpk (n=12); Eight lean male ZSF1 rats were used for normal control. Renal functional changes were monitored by blood and urine analysis following in-feed dosing for 28 weeks. Compound exposure was also monitored during the study.

[2] = test system: male obese ZSF1 rats (diabetic nephropathy model); assay: ZSF1 rat study: GFR measurement by FITC-sinistrin clearance; format: in vivo
Description: as §1
For the measurement of GFR, a miniaturized device (NIC-Kidney, Mannheim Pharma & Diagnostics, Mannheim, Germany) was used. In brief, the device (batteries, diodes, and microprocessor) containing an optical component was affixed on a depilated region of the back using a double-sided sticky patch (Lohmann GmbH KG, 56567, Neuwied, Germany) under isofluorane anesthesia (3% isoflurane mixed with oxygen). After a resting baseline period of 1-1.5 minutes, a bolus of FITC-sinistrin (5 mg/100 g body weight, dissolved in 0.5 mL sterile isotonic saline) was injected through the tail vein. The rat was then placed in a clean cage for recovery from anesthesia to responsible ambulation. […] The excretion kinetics of FITC-sinistrin was determined using a sampling rate of 60 measurements per minute with an excitation time of 10 milliseconds per measurement for 120 minutes after the injection. One compartment model was used for FITC-sinistrin clearance. After completion of GFR measurement, the device was gently removed from the skin and the rat returned to its home cage.

[3] = obese ZSF1 rats, 200 mpk in-feed, week 28
[4] = obese ZSF1 rats, 400 mpk in-feed, week 28

COc1ccc([C@H](CC(=O)O)N2CCN(CCCc3ccc4c(n3)NCCC4)C2=O)cn1 [Compound A, 3-{2-Oxo-3-[3-(5,6,7,8-tetrahydro-[1,8]naphthyridin-2-yl)-propyl]imidazolidin-1-yl}-3 (S)-(6-methoxy-pyridin-3-yl)-propionic acid]
Body Weight ([1]; 60 mpk in-feed, week 1): 566.6 ± 7.3 grams
Food Intake ([1]; 60 mpk in-feed, week 1): 30.5 ± 1.2 grams/24 h
Water Intake ([1]; 60 mpk in-feed, week 1): 34.6 ± 3.4 mls/24 h
Body Weight ([1]; 60 mpk in-feed, week 2): 577.4 ± 7.2 grams
Food Intake ([1]; 60 mpk in-feed, week 2): 26.9 ± 1.0 grams/24 h
Water Intake ([1]; 60 mpk in-feed, week 2): 34.5 ± 2.2 mls/24 h
Body Weight ([1]; 60 mpk in-feed, week 4): 599.8 ± 7.4 grams
Food Intake ([1]; 60 mpk in-feed, week 4): 29.5 ± 2.1 grams/24 h
Water Intake ([1]; 60 mpk in-feed, week 4): 46.0 ± 5.7 mls/24 h
Body Weight ([1]; 60 mpk in-feed, week 6): 624.7 ± 9.0 grams
Food Intake ([1]; 60 mpk in-feed, week 6): 32.8 ± 0.9 grams/24 h
Water Intake ([1]; 60 mpk in-feed, week 6): 45.8 ± 4.5 mls/24 h
Body Weight ([1]; 60 mpk in-feed, week 8): 652.0 ± 9.4 grams
Food Intake ([1]; 60 mpk in-feed, week 8): 34.1 ± 1.1 grams/24 h
Water Intake ([1]; 60 mpk in-feed, week 8): 59.2 ± 4.5 mls/24 h
Body Weight ([1]; 60 mpk in-feed, week 10): 678.0 ± 10.9 grams
Body Weight ([1]; 60 mpk in-feed, week 12): 703.7 ± 11.9 grams
Food Intake ([1]; 60 mpk in-feed, week 12): 36.7 ± 1.6 grams/24 h
Water Intake ([1]; 60 mpk in-feed, week 12): 71.5 ± 4.9 mls/24 h
Body Weight ([1]; 60 mpk in-feed, week 14): 712.1 ± 12.7 grams
Body Weight ([1]; 60 mpk in-feed, week 16): 733.8 ± 13.2 grams
Food Intake ([1]; 60 mpk in-feed, week 16): 33.2 ± 1.3 grams/24 h
Water Intake ([1]; 60 mpk in-feed, week 16): 63.7 ± 4.9 mls/24 h
Body Weight ([1]; 60 mpk in-feed, week 18): 746.9 ± 14.1 grams
Body Weight ([1]; 60 mpk in-feed, week 21): 781.1 ± 14.1 grams
Food Intake ([1]; 60 mpk in-feed, week 21): 34.6 ± 1.6 grams/24 h
Water Intake ([1]; 60 mpk in-feed, week 21): 64.5 ± 8.5 mls/24 h
Body Weight ([1]; 60 mpk in-feed, week 24): 808.9 ± 14.6 grams
Food Intake ([1]; 60 mpk in-feed, week 24): 31.2 ± 1.0 grams/24 h
Water Intake ([1]; 60 mpk in-feed, week 24): 59.4 ± 4.7 mls/24 h
Body Weight ([1]; 60 mpk in-feed, week 28): 839.0 ± 14.9 grams
Food Intake ([1]; 60 mpk in-feed, week 28): 31.6 ± 1.0 grams/24 h
Water Intake ([1]; 60 mpk in-feed, week 28): 66.5 ± 6.6 mls/24 h
Body Weight ([1]; 60 mpk in-feed, week −2): 521.3 ± 6.9 grams
Food Intake ([1]; 60 mpk in-feed, week −2): 38.6 ± 1.0 grams/24 h
Water Intake ([1]; 60 mpk in-feed, week −2): 60.8 ± 4.5 mls/24 h
Body Weight ([1]; 200 mpk in-feed, week 1): 568.6 ± 7.4 grams
Food Intake ([1]; 200 mpk in-feed, week 1): 29.0 ± 1.0 grams/24 h
Water Intake ([1]; 200 mpk in-feed, week 1): 30.7 ± 1.9 mls/24 h
Body Weight ([1]; 200 mpk in-feed, week 2): 581.5 ± 7.0 grams
Food Intake ([1]; 200 mpk in-feed, week 2): 29.2 ± 1.1 grams/24 h
Water Intake ([1]; 200 mpk in-feed, week 2): 29.2 ± 2.5 mls/24 h
Body Weight ([1]; 200 mpk in-feed, week 4): 605.9 ± 7.1 grams
Food Intake ([1]; 200 mpk in-feed, week 4): 30.6 ± 1.0 grams/24 h
Water Intake ([1]; 200 mpk in-feed, week 4): 33.4 ± 2.0 mls/24 h
Body Weight ([1]; 200 mpk in-feed, week 6): 631.8 ± 7.7 grams
Food Intake ([1]; 200 mpk in-feed, week 6): 34.3 ± 1.6 grams/24 h
Water Intake ([1]; 200 mpk in-feed, week 6): 39.4 ± 2.8 mls/24 h
Body Weight ([1]; 200 mpk in-feed, week 8): 663.0 ± 7.4 grams
Food Intake ([1]; 200 mpk in-feed, week 8): 31.8 ± 1.2 grams/24 h
Water Intake ([1]; 200 mpk in-feed, week 8): 51.4 ± 4.6 mls/24 h
Body Weight ([1]; 200 mpk in-feed, week 10): 690.6 ± 8.5 grams
Body Weight ([1]; 200 mpk in-feed, week 12): 718.9 ± 9.3 grams
Food Intake ([1]; 200 mpk in-feed, week 12): 35.6 ± 0.9 grams/24 h
Water Intake ([1]; 200 mpk in-feed, week 12): 63.9 ± 4.8 mls/24 h
Body Weight ([1]; 200 mpk in-feed, week 14): 729.3 ± 11.9 grams
Body Weight ([1]; 200 mpk in-feed, week 16): 754.1 ± 11.9 grams
Food Intake ([1]; 200 mpk in-feed, week 16): 33.6 ± 1.5 grams/24 h
Water Intake ([1]; 200 mpk in-feed, week 16): 57.3 ± 5.0 mls/24 h
Body Weight ([1]; 200 mpk in-feed, week 18): 772.3 ± 13.1 grams
Body Weight ([1]; 200 mpk in-feed, week 21): 800.2 ± 13.9 grams
Food Intake ([1]; 200 mpk in-feed, week 21): 35.6 ± 0.9 grams/24 h
Water Intake ([1]; 200 mpk in-feed, week 21): 58.1 ± 3.6 mls/24 h
Body Weight ([1]; 200 mpk in-feed, week 24): 825.7 ± 14.7 grams
Food Intake ([1]; 200 mpk in-feed, week 24): 31.7 ± 1.2 grams/24 h
Water Intake ([1]; 200 mpk in-feed, week 24): 61.8 ± 3.5 mls/24 h
Body Weight ([1]; 200 mpk in-feed, week 28): 848.1 ± 16.4 grams
Food Intake ([1]; 200 mpk in-feed, week 28): 33.3 ± 1.2 grams/24 h
Water Intake ([1]; 200 mpk in-feed, week 28): 70.5 ± 5.6 mls/24 h
Body Weight ([1]; 200 mpk in-feed, week −2): 520.6 ± 6.4 grams
Food Intake ([1]; 200 mpk in-feed, week −2): 37.7 ± 1.4 grams/24 h
Water Intake ([1]; 200 mpk in-feed, week −2): 59.1 ± 5.9 mls/24 h
Body Weight ([1]; 400 mpk in-feed, week 1): 568.3 ± 6.5 grams
Food Intake ([1]; 400 mpk in-feed, week 1): 30.0 ± 1.6 grams/24 h
Water Intake ([1]; 400 mpk in-feed, week 1): 37.6 ± 2.8 mls/24 h
Body Weight ([1]; 400 mpk in-feed, week 2): 582.8 ± 6.5 grams
Food Intake ([1]; 400 mpk in-feed, week 2): 32.0 ± 1.2 grams/24 h
Water Intake ([1]; 400 mpk in-feed, week 2): 40.3 ± 3.1 mls/24 h
Body Weight ([1]; 400 mpk in-feed, week 4): 604.1 ± 7.2 grams
Food Intake ([1]; 400 mpk in-feed, week 4): 33.6 ± 0.9 grams/24 h
Water Intake ([1]; 400 mpk in-feed, week 4): 45.0 ± 3.7 mls/24 h
Body Weight ([1]; 400 mpk in-feed, week 6): 631.8 ± 8.9 grams
Food Intake ([1]; 400 mpk in-feed, week 6): 34.6 ± 1.2 grams/24 h
Water Intake ([1]; 400 mpk in-feed, week 6): 49.9 ± 4.8 mls/24 h
Body Weight ([1]; 400 mpk in-feed, week 8): 654.5 ± 10.6 grams
Food Intake ([1]; 400 mpk in-feed, week 8): 34.2 ± 1.4 grams/24 h
Water Intake ([1]; 400 mpk in-feed, week 8): 62.2 ± 5.6 mls/24 h
Body Weight ([1]; 400 mpk in-feed, week 10): 676.5 ± 12.7 grams
Body Weight ([1]; 400 mpk in-feed, week 12): 704.8 ± 12.8 grams
Food Intake ([1]; 400 mpk in-feed, week 12): 35.7 ± 0.7 grams/24 h
Water Intake ([1]; 400 mpk in-feed, week 12): 63.5 ± 5.3 mls/24 h
Body Weight ([1]; 400 mpk in-feed, week 14): 704.4 ± 14.6 grams
Body Weight ([1]; 400 mpk in-feed, week 16): 739.3 ± 15.0 grams
Food Intake ([1]; 400 mpk in-feed, week 16): 33.6 ± 0.7 grams/24 h
Water Intake ([1]; 400 mpk in-feed, week 16): 63.0 ± 3.9 mls/24 h
Body Weight ([1]; 400 mpk in-feed, week 18): 757.9 ± 16.9 grams
Body Weight ([1]; 400 mpk in-feed, week 21): 791.2 ± 18.4 grams
Food Intake ([1]; 400 mpk in-feed, week 21): 36.0 ± 1.2 grams/24 h
Water Intake ([1]; 400 mpk in-feed, week 21): 59.3 ± 4.4 mls/24 h
Body Weight ([1]; 400 mpk in-feed, week 24): 823.8 ± 18.9 grams
Food Intake ([1]; 400 mpk in-feed, week 24): 33.3 ± 1.5 grams/24 h
Water Intake ([1]; 400 mpk in-feed, week 24): 67.2 ± 4.8 mls/24 h
Body Weight ([1]; 400 mpk in-feed, week 28): 852.1 ± 19.5 grams
Food Intake ([1]; 400 mpk in-feed, week 28): 32.1 ± 1.7 grams/24 h
Water Intake ([1]; 400 mpk in-feed, week 28): 80.1 ± 4.6 mls/24 h
Body Weight ([1]; 400 mpk in-feed, week −2): 522.3 ± 7.1 grams
Food Intake ([1]; 400 mpk in-feed, week −2): 37.7 ± 1.1 grams/24 h
Water Intake ([1]; 400 mpk in-feed, week −2): 57.2 ± 4.9 mls/24 h
effect on body weight (BW) ([1]; in-feed for 28 weeks): no significant effect
effect on food intake (FI) ([1]; in-feed for 28 weeks): no significant effect
effect on water intake (WI) ([1]; in-feed for 28 weeks): no significant effect
effect on glomerular filtration rate ([2]; 60 mpk, 200 mpk and 400 mpk at weeks 28-30): no significant effect
Glomerular Filtration Rate ([2]; ZSF-1 rats vs untreated obese ZSF-1 rats (summary)): non-statistically significant improvements in glomerular filtration rate
Glomerular Filtration Rate ([2]; obese ZSF1 rats, 60 mpk in-feed, week 28): 609.8 ± 42.1 uLs/Min/100 gm BW
FITC-sinistrin clearance, % change of improvement compared to Obese Vehicle group [2, 3]: 8.8%
Glomerular Filtration Rate [2, 3]: 663.2 ± 50.6 uLs/Min/100 gm BW
FITC-sinistrin clearance, % change of improvement compared to Obese Vehicle group [2, 4]: 14.4%
Glomerular Filtration Rate [2, 4]: 697.5 ± 37.9 uLs/Min/100 gm BW
